Data published in patent US20180105548A1, “A novel compound (KS-513) isolated from Pseudolysimachion rotundum var. subintegrum, the composition comprising the same preventing or treating allergic disease, inflammatory disease, asthma or chronic obstructive pulmonary disease and the use thereof” (priority 2015, published 2018).

Key:
Format in all cases: cell-based, mouse
[1] = test system: NO; experiment: NO production in LPS-treated RAW264.7 cell (Griess Reagent); settings: for NO production (relative % comparing with LPS treatment group) / NO production, Inhibitory ratio (%): LPS 1 μg/mL, 24 hours
Protocol: In order to determine the amount of NO reproduction in medium, following test was performed according to the method disclosed in the literature (Ding, A. H., et al., 1988, Release of reactive nitrogen intermediates and reactive oxygen intermediates from mouse peritoneal macrophages, Comparison of activating cytokines and evidence for independent production, Journal of Immunology, 141, pp 2407-2412).
RAW264.7 cell was inoculated into 96 well plates in the concentration of 1×10^5 cell/well to incubate for 18 hours. Various concentration of KS-513 compound (2.5, 5, 10 and 20 μM) was pre-treated therewith and 1 μg/mL of LPS (L6529, Sigma) was added thereto to incubate for 24 hours. The equivalent amount of Griess Reagent (G4410, Sigma) to the medium was added thereto and reacted at room temperature for 10 mins to determine the absorbance at 540 nm. The level of NO in the medium was determined using by standard curve expressed according to various concentration of sodium nitrite and the result was shown in Table 5 and FIG. 3.

[2] = test system: PGE2; experiment: PGE2 production in LPS-treated RAW264.7 cell (EIA); settings: for PGE2 production (relative % comparing with LPS treatment group) / PGE2 production, Inhibitory ratio (%): LPS 1 μg/mL, 24 hours
Protocol: In order to determine the inhibitory effect on the COX-2 protein expression and the reproduced level of PGE2, following test was performed by the method disclosed in the literature (Chen, C, et al., 1999, Involvement of p 38 mitogen-activated protein kinase in lipopolysaccharide-induced iNOS and COX-2 expression in J774 macrophage, Immunology, 97, pp 124-129)
RAW264.7 cell was inoculated into 96 well plates in the concentration of 1×10^5 cell/well to incubate for 18 hours. Various concentration of KS-513 compound (2.5, 5, 10 and 20 μM) was pre-treated therewith and 1 μg/mL of LPS (L6529, Sigma) was added thereto to incubate for 24 hours. The PGE2 level in the cell was determined by Enzyme immunoassay (EIA; Amersham Pharmacia) system and the result was shown in FIG. 4A, 4B and Table 6.

[3] = test system: IL-6; experiment: mRNA expression of IL-6 in RAW264.7 cell line induced by LPS (real-time PCR); settings: for IL-6 mRNA expression, Fold (value compared with a negative group) / IL-6 mRNA expression, Inhibition ratio (IR) compared with LPS treatment group: LPS 1 μg/ml, 12 hours
Protocol: In order to determine the inhibitory effect on the mRNA expression of pro-inflammatory medicated enzyme such as iNOS or COX-2, and pro-inflammatory medicated cytokines such as IL-1beta, IL-6, TNF-alpha in RAW264.7 cell line induced by LPS, following test using by real-time PCR (real-time polymerase chain reaction, quantitative real time polymerase chain reaction, qPCR) was performed according to the method disclosed in the literature (Livak, K. J., Schimittgen T. D., 2001, Analysis of relative gene expression data using real-time quantitiative PCR and the 2 (-Delta Delta C(T) method, Methods 25, p 402-408):
(§1) RAW264.7 cell was inoculated into 6-well-plates in the concentration of 1×10^6 cell/well to incubate for 12 hours. Various concentration of KS-513 compound (2.5, 5, 10 and 20 μM) was pre-treated therewith and 1 μg/mL of LPS (L6529, Sigma) was added thereto to incubate for 12 hours.
To extract total RNA, RNA was extracted using by Triazol B (invitrogen) and cDNA was synthesized using by Omniscript RT kit (205113, Qiagen, Gmbh, Hilden, Germany) after the quantification. The synthesized cDNA was mixed with its template and the primers shown in Table 3 (SEQ.I.D. 1-14), performed to denaturation at 94° C. for 5 mins using by PCR mix (PCR master Mix, Bioneer, Korea), and reacted as follows: 1 cycle for pre-denaturation; at 95° C. for 30 sec, 60° C. for 45 sec, 72° C. for 45 sec, 30 cycles for denaturation; 10 mins at 72° C., 1cycle for final extension. (FIG. 2)

[4] = test system: iNOS; experiment: iNOS protein expression in RAW264.7 cell induced by LPS (Western blot); settings: 2.5, 5, 10 and 20 μM, LPS 1 μg/mL, 12 hours, FIG. 3A
Protocol: as §1, with “The expressed level of iNOS in RAW264.7 cell induced by LPS (1 μg/ml) was determined by using Western blot analysis. RAW264.7” for “RAW264.7”, “[…]” for “6-well-plates”
To extract protein, after washing the cell with ice-cold PBS three times, lysis buffer (50 mM Tris HCl (pH 8.0), 5 mM EDTA, 150 mM NaCl, 1% NP-40, 0.1% SDS, 1 mM PMSF, and protease inhibitor cocktail tablet (Roche, Germany, 11697498001) was added to the cell, reacted at 4° C. for 30 mins and centrifuged for 10 mins at the speed of 12,000 rpm to collect the supernatant.
The equivalent amount of the protein was isolated by SDS-PAGE and the protein was transferred to nitrocellulose membrane (BR162-0145, Bio-Rad). […] The product was reacted with ECL system and the amount of protein was determined by imaging analysis apparatus (LAS-4000, Fujifilm).
The quantitative determination of protein was performed by determining the absorbance using assay kit (Bradford protein assay kit, Thermo) at 595 nm and the result was shown in FIG. 3A.

CO[C@@H]1C[C@H]2[C@H](OC(=O)c3ccc(O)cc3)[C@@H]3O[C@]3(CO)[C@H]2[C@H](O[C@@H]2O[C@H](CO)[C@@H](O)C(O)[C@H]2O)O1 (stereo partly drawn) [KS-513, (1aS, 1bS,2S,4S,5aR,6S,6aS)-1a-(hydroxymethyl)-4-methoxy-2-(((2S,3R,5S,6R)-3,4,5-trihydroxy-6-(hydroxymethyl)tetrahydro-2H-pyran-2-yl)oxy)octahydrooxireno[2′,3′:4,5]cyclopenta[1,2-c]pyran-6-yl 4-hydroxybenzoate]
NO production (relative % comparing with LPS treatment group) ([1]; 2.5 μM): 91.89 ± 4.24%
NO production, Inhibitory ratio (%) ([1]; 2.5 μM): 8.21%
NO production (relative % comparing with LPS treatment group) ([1]; 5 μM): 83.69 ± 3.79%
NO production, Inhibitory ratio (%) ([1]; 5 μM): 16.41%
NO production (relative % comparing with LPS treatment group) ([1]; 10 μM): 80.06 ± 2.68%
NO production, Inhibitory ratio (%) ([1]; 10 μM): 20.04%
NO production (relative % comparing with LPS treatment group) ([1]; 20 μM): 72.16 ± 3.57%
NO production, Inhibitory ratio (%) ([1]; 20 μM): 27.94%
reproduced level of NO ([1]; based on LPS treatment (100%)): reduced in a dose dependent manner
PGE2 production (relative % comparing with LPS treatment group) ([2]; 2.5 μM): 92.68 ± 7.29%
PGE2 production, Inhibitory ratio (%) ([2]; 2.5 μM): 7.31%
PGE2 production (relative % comparing with LPS treatment group) ([2]; 5 μM): 72.87 ± 8.78%
PGE2 production, Inhibitory ratio (%) ([2]; 5 μM): 27.13%
PGE2 production (relative % comparing with LPS treatment group) ([2]; 10 μM): 51.65 ± 8.44%
PGE2 production, Inhibitory ratio (%) ([2]; 10 μM): 48.35%
PGE2 production (relative % comparing with LPS treatment group) ([2]; 20 μM): 28.23 ± 4.72%
PGE2 production, Inhibitory ratio (%) ([2]; 20 μM): 71.77%
reproduced ratio of PGE2 ([2]; based on LPS treatment (100%)): reduced in a dose dependent manner
IL-6 mRNA expression, Fold (value compared with a negative group) ([3]; 2.5 μM): 24.73 ± 2.26 Fold
IL-6 mRNA expression, Inhibition ratio (IR) compared with LPS treatment group ([3]; 2.5 μM): 20.62%
IL-6 mRNA expression, Fold (value compared with a negative group) ([3]; 5 μM): 14.24 ± 1.44 Fold
IL-6 mRNA expression, Inhibition ratio (IR) compared with LPS treatment group ([3]; 5 μM): 54.30%
IL-6 mRNA expression, Fold (value compared with a negative group) ([3]; 10 μM): 8.57 ± 1.23 Fold
IL-6 mRNA expression, Inhibition ratio (IR) compared with LPS treatment group ([3]; 10 μM): 72.50%
IL-6 mRNA expression, Fold (value compared with a negative group) ([3]; 20 μM): 2.35 ± 0.81 Fold
IL-6 mRNA expression, Inhibition ratio (IR) compared with LPS treatment group ([3]; 20 μM): 92.46%
expressed level of mRNA of IL-6 ([3]; various concentration, compared with control group treated with LPS (100%)): significantly decreased in a dose dependent manner
expressed level of iNOS protein [4]: reduced in a dose dependent manner
